Article PMC5077204, “Accumulation of Peptidoglycan O-Acetylation Leads to Altered Cell Wall Biochemistry and Negatively Impacts Pathogenesis Factors of Campylobacter jejuni” (The Journal of Biological Chemistry, 2016)

Target: T1, Ape1-His6 (Campylobacter jejuni, UniProt A0A0H3PJ52)
T1 construct: gene CJJ81176_0638; predicted 21-residue signal peptide removed; C-terminal His6 tag (pET28a(+)), expressed in E. coli BL21(DE3)
Test: absorbance at […] nm, p-nitrophenol release
Assay type: biochemical
Details: 2 mM pNPAc; 50 mM sodium phosphate pH 6.5; room temperature

T1 sequence (A0A0H3PJ52 entry or part of it): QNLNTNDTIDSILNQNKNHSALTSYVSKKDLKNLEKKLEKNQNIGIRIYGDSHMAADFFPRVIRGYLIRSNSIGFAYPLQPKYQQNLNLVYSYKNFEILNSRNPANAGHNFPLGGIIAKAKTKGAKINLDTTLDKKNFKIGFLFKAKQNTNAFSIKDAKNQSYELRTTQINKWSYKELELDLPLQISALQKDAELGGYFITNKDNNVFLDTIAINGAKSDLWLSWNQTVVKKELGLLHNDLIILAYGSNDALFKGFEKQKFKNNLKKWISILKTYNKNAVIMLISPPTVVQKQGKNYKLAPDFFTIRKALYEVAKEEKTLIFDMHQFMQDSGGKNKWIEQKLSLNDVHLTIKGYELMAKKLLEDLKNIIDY

CC(=O)Oc1ccc([N+](=O)[O-])cc1 [p-nitrophenyl acetate]
absorbance at 405 nm, p-nitrophenol release: The specific activity of purified Ape1 was determined using p-nitrophenylacetate (pNPAc)
